Activity, IC50 and fold change (FC) data for seven compounds are collected here from ChEMBL document CHEMBL5143588, “Discovery, Synthesis, and Biological Evaluation of Anaenamides C and D from a New Marine Cyanobacterium, Hormoscilla sp” (J Nat Prod, 2022).

The target of series [1] is T1, Nuclear factor erythroid 2-related factor 2 (Homo sapiens) (UniProt Q16236).
T1 sequence (whole entry): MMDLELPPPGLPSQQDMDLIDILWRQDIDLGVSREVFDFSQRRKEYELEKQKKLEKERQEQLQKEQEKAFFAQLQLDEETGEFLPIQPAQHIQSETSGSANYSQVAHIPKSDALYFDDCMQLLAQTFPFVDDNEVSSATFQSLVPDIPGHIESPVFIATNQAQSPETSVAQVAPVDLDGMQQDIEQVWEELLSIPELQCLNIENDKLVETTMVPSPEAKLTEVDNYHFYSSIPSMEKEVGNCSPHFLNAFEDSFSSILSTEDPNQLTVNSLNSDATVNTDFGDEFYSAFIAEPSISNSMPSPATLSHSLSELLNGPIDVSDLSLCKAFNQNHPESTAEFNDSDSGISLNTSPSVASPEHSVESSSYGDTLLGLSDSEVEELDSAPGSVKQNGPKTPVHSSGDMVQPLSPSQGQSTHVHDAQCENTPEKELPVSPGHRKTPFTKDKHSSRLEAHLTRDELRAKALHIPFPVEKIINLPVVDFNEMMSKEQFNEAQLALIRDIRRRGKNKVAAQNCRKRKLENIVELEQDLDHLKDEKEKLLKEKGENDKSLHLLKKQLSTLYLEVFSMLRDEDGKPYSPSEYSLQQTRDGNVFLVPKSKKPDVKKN
The series can be described thus: Activation of Nrf2 in human HEK293-ARE-Luc cells at 10 to 100 uM incubated for 24 hrs by ARE-luciferase reporter gene assay. The class given is cell-based. As to conditions: filed as activator, dose 10-100 µM.

Series [2] deals with HEK293. The experiment in a line: Cytotoxicity against human HEK293-ARE-Luc cells assessed as reduction in cell viability at 10 to 100 uM incubated for 24 hrs by MTT assay. The class given is toxicity, cell-based. As to conditions: hek293, 24 h, dose 10-100 µM. In general terms: Formazan colour is commonly taken as a measure of viable cells.
Series [3] relates to HCT-116. The series can be described thus: Cytotoxicity against human HCT116 cells assessed as inhibition of cell viability incubated for 48 hrs by MTT assay. The class given is functional, cell-based. The conditions noted are these: HCT-116, 48 h.
Series [4] addresses T1, Nuclear factor erythroid 2-related factor 2 (Homo sapiens). The series can be described thus: Activation of Nrf2 in human HEK293-ARE-Luc cells assessed as fold activation of luciferase activity at 100 uM incubated for 24 hrs by ARE-luciferase reporter gene assay. In kind it is cell-based. As to conditions: filed as activator. (In general: A reporter such as luciferase makes a cellular process visible.)

Series [5] deals with HEK293. The experiment in a line: Cytotoxicity against human HEK293-ARE-Luc cells assessed as change in cell viability incubated for 24 hrs by MTT assay. As to conditions: hek293, 24 h. In kind it is toxicity, cell-based.
The target of series [6] is T1, Nuclear factor erythroid 2-related factor 2 (Homo sapiens). The experiment in a line: Activation of Nrf2 in human HEK293-ARE-Luc cells assessed as fold activation of luciferase activity at 32 uM incubated for 24 hrs by ARE-luciferase reporter gene assay. In kind it is cell-based. As to conditions: filed as activator.

Structures are written as SMILES. The source made the active and inactive calls. The rule behind the calls is not given here.

As usually defined, the IC50 is the concentration at which inhibition is half-maximal. On to `CCCCCc1cccc(OC)c1C(=O)O[C@@H](C(=O)O[C@@H](C)C(=O)NC/C=C(\Cl)C(=O)OC)[C@@H](C)CC`, for which the result in series [1] was Active. Besides, the Activity result in series [2] is on record as “Toxic”. In addition, the IC50 in series [3] stood at 9 µM.

Consider `CCCCCc1cccc(OC)c1C(=O)O[C@@H](C(=O)O[C@@H](C)C(=O)NC/C=C(/Cl)C(=O)NC(c1ccccc1)(c1ccccc1)c1ccccc1)[C@@H](C)CC`, for which the fold change (FC) in series [4] was found to be 6.

In the case of `CCCCCc1cccc(OC)c1C(=O)O[C@@H](C(=O)O[C@@H](C)C(=O)NC/C=C(/Cl)C(=O)OC)[C@@H](C)CC`, in series [1], the outcome was Active. In addition, in series [2], the Activity result is reported as “Toxic”. Moreover, the IC50 in series [3] is 5 µM.

As for `CC(C)(C)c1cc(O)ccc1O` [E319], the Activity result in series [5] is “Non-Toxic”. Moreover, the fold change (FC) in series [6] is 29.

`CCCCCc1cccc(OC)c1C(=O)O[C@@H](C(=O)O[C@@H](C)C(=O)NC/C=C(\Cl)C(N)=O)[C@@H](C)CC`: the fold change (FC) in series [6] came out at 15. The IC50 in series [3] was determined as 42 µM.

Regarding `CCCCCc1cccc(OC)c1C(=O)O[C@@H](C(=O)O[C@@H](C)C(=O)NC/C=C(\Cl)C(=O)NC(c1ccccc1)(c1ccccc1)c1ccccc1)[C@@H](C)CC`, the fold change (FC) in series [4] amounted to 11.

For `CCCCCc1cccc(OC)c1C(=O)O[C@@H](C(=O)O[C@@H](C)C(=O)NC/C=C(/Cl)C(N)=O)[C@@H](C)CC`, the fold change (FC) in series [6] was 17. Also, in series [3], the IC50 was 32 µM.
